Biological target: ROMK (Homo sapiens (Human), UniProt P48048)
Assay: Thallium Flux Assay
Format: cell-based
Protocol: A Thallium Flux Assay was performed on the compounds of the Examples. This assay has been described previously; see, e.g., PCT Published Application WO 2013/062900.

ROMK, sequence (P48048 whole entry): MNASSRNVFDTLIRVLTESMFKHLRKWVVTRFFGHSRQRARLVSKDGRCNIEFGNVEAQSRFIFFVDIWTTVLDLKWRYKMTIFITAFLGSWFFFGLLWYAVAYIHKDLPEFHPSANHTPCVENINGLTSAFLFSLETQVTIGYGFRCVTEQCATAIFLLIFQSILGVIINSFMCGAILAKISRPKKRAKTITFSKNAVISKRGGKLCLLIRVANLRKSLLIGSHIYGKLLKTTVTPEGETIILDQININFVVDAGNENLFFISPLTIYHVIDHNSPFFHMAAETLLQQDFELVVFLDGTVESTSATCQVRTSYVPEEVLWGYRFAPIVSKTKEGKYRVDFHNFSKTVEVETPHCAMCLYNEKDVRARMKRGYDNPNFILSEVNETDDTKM

SMILES	IC50
CC1=C(N2CCNC3(CCN(CC(O)c4ccc(-n5cnnn5)nc4C)CC3)C2=O)COC1=O (single isomer, unassigned) [Example 2B, 9-(2-hydroxy-2-(2-methyl-6-(1H-tetrazol-1-yl)pyridin-3-yl)ethyl)-4-(4-methyl-5-oxo-2,5-dihydrofuran-3-yl)-1,4,9-triazaspiro[5.5]undecan-5-one]	0.0562 µM
CC1=C(N2CCNC3(CCN(CC(O)c4cnc(-n5cnnn5)cn4)CC3)C2=O)COC1=O (single isomer, unassigned) [Example 3A, 9-(2-(5-(1H-tetrazol-1-yl)pyrazin-2-yl)-2-hydroxyethyl)-4-(4-methyl-5-oxo-2,5-dihydrofuran-3-yl)-1,4,9-triazaspiro[5.5]undecan-5-one]	0.114 µM
CC1=C(N2CCNC3(CCN(CC(O)c4cnc(-n5cnnn5)cn4)CC3)C2=O)COC1=O (single isomer, unassigned) [Example 3B, 9-(2-(5-(1H-tetrazol-1-yl)pyrazin-2-yl)-2-hydroxyethyl)-4-(4-methyl-5-oxo-2,5-dihydrofuran-3-yl)-1,4,9-triazaspiro[5.5]undecan-5-one]	0.142 µM
CC1=C(N2CCNC3(CCN(CC(O)c4ccc(-n5cnnn5)cc4)CC3)C2=O)COC1=O (single isomer, unassigned) [Example 5A, 9-(2-(4-(1H-tetrazol-1-yl)phenyl)-2-hydroxyethyl)-4-(4-methyl-5-oxo-2,5-dihydrofuran-3-yl)-1,4,9-triazaspiro[5.5]undecan-5-one]	0.0425 µM
CC1=C(N2CCNC3(CCN(CC(O)c4ccc(-n5cnnn5)cc4)CC3)C2=O)COC1=O (single isomer, unassigned) [Example 5B, 9-(2-(4-(1H-tetrazol-1-yl)phenyl)-2-hydroxyethyl)-4-(4-methyl-5-oxo-2,5-dihydrofuran-3-yl)-1,4,9-triazaspiro[5.5]undecan-5-one]	0.0368 µM
CC1=C(N2C(=O)C3(CCN(C[C@@H](O)c4ccc(-n5cnnn5)nc4)CC3)OCC2C)COC1=O (single isomer, unassigned) [Example 10A]	0.155 µM
CC1=C(N2C(=O)C3(CCN(C[C@H](O)c4ccc(-n5cnnn5)nc4)CC3)OCC2C)COC1=O (single isomer, unassigned) [Example 10B]	0.307 µM
CC1=C(N2C(=O)C3(CCN(C[C@@H](O)c4ccc(-n5cnnn5)nc4)CC3)OCC2C)COC1=O (single isomer, unassigned) [Example 10C]	0.317 µM
CC1=C(N2C(=O)C3(CCN(C[C@H](O)c4ccc5c(c4C)COC5=O)CC3)OCC2C)COC1=O (single isomer, unassigned) [Example 11]	0.267 µM
CC1COC2(CCN(C[C@@H](O)c3ccc(-n4cnnn4)nc3)CC2)C(=O)N1C1=CC(=O)OC1 (single isomer, unassigned) [Example 13A]	0.23 µM
CC1COC2(CCN(C[C@H](O)c3ccc(-n4cnnn4)nc3)CC2)C(=O)N1C1=CC(=O)OC1 (single isomer, unassigned) [Example 13B]	0.415 µM
Cc1c([C@@H](O)CN2CCC3(CC2)OCC(C)N(C2=CC(=O)OC2)C3=O)ccc2c1COC2=O (single isomer, unassigned) [Example 14]	0.264 µM
Cc1nc(-n2cnnn2)ccc1C(O)CN1CCC2(CC1)CN(C1=CC(=O)OC1)C(=O)O2 (single isomer, unassigned) [Example 17, 8-(2-hydroxy-2-(2-methyl-6-(1H-tetrazol-1-yl)pyridin-3-yl)ethyl)-3-(5-oxo-2,5-dihydrofuran-3-yl)-1-oxa-3,8-diazaspiro[4.5]decan-2-one]	0.468 µM
CC1=C(N2CCOC3(CCN(CC(O)c4cnc(-n5cnnn5)cn4)CC3)C2=O)COC1=O (single isomer, unassigned) [Example 18B, 9-(2-(5-(1H-tetrazol-1-yl)pyrazin-2-yl)-2-hydroxyethyl)-4-(4-methyl-5-oxo-2,5-dihydrofuran-3-yl)-1-oxa-4,9-diazaspiro[5.5]undecan-5-one]	0.11 µM
Cc1nc(-n2cnnn2)ccc1C(O)CN1CCC2(CC1)CCN(C1=CC(=O)OC1)C(=O)O2 (single isomer, unassigned) [Example 27, 9-(2-hydroxy-2-(2-methyl-6-(1H-tetrazol-1-yl)pyridin-3-yl)ethyl)-3-(5-oxo-2,5-dihydrofuran-3-yl)-1-oxa-3,9-diazaspiro[5.5]undecan-2-one]	0.0655 µM
Cc1cc(-n2cnnn2)ccc1C(O)CN1CCC2(CC1)CN(C1=CC(=O)OC1)CCO2 (single isomer, unassigned) [Example 30A, 4-(9-(2-hydroxy-2-(2-methyl-4-(1H-tetrazol-1-yl)phenyl)ethyl)-1-oxa-4,9-diazaspiro[5.5]undecan-4-yl)furan-2(5H)-one]	0.477 µM
Cc1cc(-n2cnnn2)ccc1C(O)CN1CCC2(CC1)CN(C1=CC(=O)OC1)CCO2 (single isomer, unassigned) [Example 30B, 4-(9-(2-hydroxy-2-(2-methyl-4-(1H-tetrazol-1-yl)phenyl)ethyl)-1-oxa-4,9-diazaspiro[5.5]undecan-4-yl)furan-2(5H)-one]	0.0743 µM
CC1=C(N2CCOC3(CCN(CC(O)c4ccc(-n5cnnn5)cc4C)CC3)C2)COC1=O (single isomer, unassigned) [Example 31A, 4-(9-(2-hydroxy-2-(2-methyl-4-(1H-tetrazol-1-yl)phenyl)ethyl)-1-oxa-4,9-diazaspiro[5.5]undecan-4-yl)-3-methylfuran-2(5H)-one]	0.126 µM
CC1=C(N2CCOC3(CCN(CC(O)c4ccc(-n5cnnn5)cc4C)CC3)C2)COC1=O (single isomer, unassigned) [Example 31B, 4-(9-(2-hydroxy-2-(2-methyl-4-(1H-tetrazol-1-yl)phenyl)ethyl)-1-oxa-4,9-diazaspiro[5.5]undecan-4-yl)-3-methylfuran-2(5H)-one]	0.026 µM
CC1=C(N2CCOC3(CCN(CC(O)c4ccc(-n5cnnn5)cc4F)CC3)C2)COC1=O (single isomer, unassigned) [Example 32A, 4-(9-(2-(2-fluoro-4-(1H-tetrazol-1-yl)phenyl)-2-hydroxyethyl)-1-oxa-4,9-diazaspiro[5.5]undecan-4-yl)-3-methylfuran-2(5H)-one]	0.0374 µM
CC1=C(N2CCOC3(CCN(CC(O)c4ccc(-n5cnnn5)cc4F)CC3)C2)COC1=O (single isomer, unassigned) [Example 32B, 4-(9-(2-(2-fluoro-4-(1H-tetrazol-1-yl)phenyl)-2-hydroxyethyl)-1-oxa-4,9-diazaspiro[5.5]undecan-4-yl)-3-methylfuran-2(5H)-one]	0.123 µM
COc1cc(-n2cnnn2)ccc1C(O)CN1CCC2(CC1)CN(C1=C(C)C(=O)OC1)CCO2 (single isomer, unassigned) [Example 33A, 4-(9-(2-hydroxy-2-(2-methoxy-4-(1H-tetrazol-1-yl)phenyl)ethyl)-1-oxa-4,9-diazaspiro[5.5]undecan-4-yl)-3-methylfuran-2(5H)-one]	0.0305 µM
COc1cc(-n2cnnn2)ccc1C(O)CN1CCC2(CC1)CN(C1=C(C)C(=O)OC1)CCO2 (single isomer, unassigned) [Example 33B, 4-(9-(2-hydroxy-2-(2-methoxy-4-(1H-tetrazol-1-yl)phenyl)ethyl)-1-oxa-4,9-diazaspiro[5.5]undecan-4-yl)-3-methylfuran-2(5H)-one]	0.0919 µM
